Measured values published in US20080306118A1, “Process for the crystallization of (R) - or (S) - Lansoprazole” (Takeda Pharmaceutical Company Limited, priority 2000, published 2008).

Assay: Stability test (relationship between melting start temperature and stability) of lansoprazole enantiomer crystals
Format: physicochemical
Settings: for 60° C. one month residual ratio: crystal, stability test at 60° C. for one month; for appearance after stability tests (FIG. 1): 40° C. 2 weeks, 50° C. 2 weeks and 60° C. 2 weeks, compared with before test
Experimental: Stability Test (Relationship Between Melting Start Temperature and Stability)
Various (R)-lansoprazole crystals obtained in the above-mentioned Reference Examples and Examples were subjected to a stability test at 60° C. for one month.
The crystal of (R)-lansoprazole was subjected to a 40° C. one month stability test.
In FIG. 1, the appearance of a crystal (Example 1) having a melting start temperature of about 134° C. and a crystal (Reference Example 6) having a melting start temperature of about 130° C. before stability test and after stability tests (40° C. 2 weeks, 50° C. 2 weeks and 60° C. 2 weeks) is shown.

[1] = initial (before 40° C. one month stability test)

## Cc1c(OCC(F)(F)F)ccnc1C[S@@+]([O-])c1nc2ccccc2[nH]1 [Reference Example 3, (R)-2-[[[3-methyl-4-(2,2,2-trifluoroethoxy)-2-pyridinyl]methyl]sulfinyl]-1H-benzimidazole, reference compound]
  60° C. one month residual ratio: 89.8%

## Cc1c(OCC(F)(F)F)ccnc1C[S@@+]([O-])c1nc2ccccc2[nH]1 [Example 6, (R)-2-[[[3-methyl-4-(2,2,2-trifluoroethoxy)-2-pyridinyl]methyl]sulfinyl]-1H-benzimidazole]
  60° C. one month residual ratio: 99.2%

## Cc1c(OCC(F)(F)F)ccnc1C[S@@+]([O-])c1nc2ccccc2[nH]1 [Example 1, (R)-2-[[[3-methyl-4-(2,2,2-trifluoroethoxy)-2-pyridinyl]methyl]sulfinyl]-1H-benzimidazole]
  appearance after stability tests (FIG. 1): did not show changes in the appearance
  60° C. one month residual ratio: 99.7%

## Cc1c(OCC(F)(F)F)ccnc1C[S@@+]([O-])c1nc2ccccc2[nH]1 [Reference Example 7, (R)-2-[[[3-methyl-4-(2,2,2-trifluoroethoxy)-2-pyridinyl]methyl]sulfinyl]-1H-benzimidazole, reference compound]
40° C. one month
  analogous material content: 4.6%
  appearance: brown
  content: 93.8%
[1]
  analogous material content: 0.1%
  appearance: almost white
  content: 99.6%

## Cc1c(OCC(F)(F)F)ccnc1C[S@@+]([O-])c1nc2ccccc2[nH]1 [Example 11, (R)-2-[[[3-methyl-4-(2,2,2-trifluoroethoxy)-2-pyridinyl]methyl]sulfinyl]-1H-benzimidazole]
40° C. one month
  analogous material content: 0.2%
  appearance: almost white
  content: 99.7%
[1]
  analogous material content: 0.2%
  appearance: almost white
  content: 99.5%

## Cc1c(OCC(F)(F)F)ccnc1C[S@@+]([O-])c1nc2ccccc2[nH]1 [Example 2, (R)-2-[[[3-methyl-4-(2,2,2-trifluoroethoxy)-2-pyridinyl]methyl]sulfinyl]-1H-benzimidazole]
  60° C. one month residual ratio: 100%

## Cc1c(OCC(F)(F)F)ccnc1C[S@@+]([O-])c1nc2ccccc2[nH]1 [Reference Example 6, (R)-2-[[[3-methyl-4-(2,2,2-trifluoroethoxy)-2-pyridinyl]methyl]sulfinyl]-1H-benzimidazole, reference compound]
  appearance after stability tests (FIG. 1): showed appreciably degraded appearance
  60° C. one month residual ratio: 93.8%
